Source: patent publication US20250188149A1, “ENHANCING ESTROGEN RECEPTOR ALPHA IN OSTEOARTHRITIS” (University of Pittsburgh - Of the Commonwealth System of …, priority 2022, published 2025)

Columns and labels:
[1] = patients with knee OA, intra-articular injection, phase II clinical trial, vs placebo; cited from earlier work
[2] = system: healthy human chondrocytes; assay: DOX-induced DNA damage and senescence in healthy human chondrocytes; conditions: 100 nM DOX, 3 days, vs vehicle

## CC1(C)CCC(c2ccc(Cl)cc2)=C(CN2CCN(c3ccc(C(=O)NS(=O)(=O)c4ccc(N[C@H](CCN5CCOCC5)CSc5ccccc5)c(S(=O)(=O)C(F)(F)F)c4)cc3)CC2)C1 [ABT-263]
[1]
  reduction of joint pain and stiffness: failed to outperform a placebo

## COc1cccc2c1C(=O)c1c(O)c3c(c(O)c1C2=O)C[C@@](O)(C(=O)CO)C[C@@H]3O[C@H]1C[C@H](N)[C@H](O)[C@H](C)O1 [DOX, doxorubicin]
[2]
  DNA damage (p21, γH2AX levels, comet assay): significant DNA damage
  IL-6 and IL-8 expression (real-time qPCR): upregulation
  NF-κB pathway (NFκB gene, p-p65): activated
  SA-β-Gal staining (senescent phenotype): increased
  p16INK4A and p21 levels: upregulation
[2]; western blot and IF
  ERα level: significantly reduced
